Assay results reported in patent US20250361273A1, “METHODS AND COMPOSITIONS” (priority 2024, published 2025).
pEC50: −log10 of the molar value. Where a SMILES comes first, the peptide text is derived from it. Bridges are numbered along the chain shown (N, C = ends). [ ]: non-standard residue; d: D form. Trp(6-F) = N[C@@H](Cc1c[nH]c2cc(F)ccc12)C(=O)O; dPhe(4-F) = N[C@H](Cc1ccc(F)cc1)C(=O)O; dAgb = N=C(N)NCC[C@@H](N)C(=O)O; Ac4c(3-oxa) = NC1(C(=O)O)COC1; Pen = CC(C)(S)[C@H](N)C(=O)O

Experiments:
MC1R = MC1R (Homo sapiens, UniProt Q01726); assay: cAMP assay (human receptors), DiscoverX HitHunter, MC1R
Chain of MC1R (Q01726 whole entry): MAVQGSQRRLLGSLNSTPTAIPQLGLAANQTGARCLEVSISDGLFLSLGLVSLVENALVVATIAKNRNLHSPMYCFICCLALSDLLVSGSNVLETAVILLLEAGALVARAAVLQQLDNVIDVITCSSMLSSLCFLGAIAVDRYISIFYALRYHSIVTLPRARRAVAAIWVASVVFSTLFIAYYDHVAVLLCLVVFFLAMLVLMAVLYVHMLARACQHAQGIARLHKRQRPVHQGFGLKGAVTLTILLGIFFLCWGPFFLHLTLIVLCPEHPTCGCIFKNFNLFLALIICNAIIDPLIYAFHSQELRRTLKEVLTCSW
Procedure: The cAMP Assay (Human Receptors)
The in vitro functional activity of peptides was determined via DiscoverX Hit Hunter® cAMP assays, adhering to manufacturer-specified protocols. Assays involved the use of HEK293 cells, each of which were engineered to express MC1R or MC4R receptors.
In accordance with standard procedures, cAMP Hunter cell lines, extracted from freezer stocks, were cultured in 20 μL volumes in white-walled, 384-well microplates. These cells were incubated at 37° C. for an appropriate duration before commencing testing procedures. The identification of cAMP modulation was determined using the DiscoverX HitHunter assay.
For gauging the response from agonists, cells were incubated with a specific peptide, after which the media was aspirated and replaced with a solution of 10 μL of HBSS/10 mM Hepes, known as Assay Buffer. A subsequent dilution of sample stocks yielded a 4× sample in the assay buffer, which was then added to the cells in equal quantities, followed by a 30-minute incubation at 37° C. The ensuing concentration of DMSO, the vehicle, was maintained at 1%. […]
Compound activity was evaluated using a Chemical and Biological Information System software (CBIS) data analysis suite. The results described were calculated on an average of the two points per concentration generated by the assay described above. […]

MC4R vs MC1R = assay: Selectivity calculation MC4R vs MC1R (division of cAMP EC50 values); assay type: cell-based, human
Procedure: Peptides, including comparator molecules were tested by assays listed below. Selectivity between receptors was assessed in part using cAMP assays, which test the activity of peptides through the Gs pathway.
Selectivity between any two receptors was calculated by a division of the EC50 values between the two receptors, for each individual peptide.

MC4R = biological target: T1, MC4R (Homo sapiens, UniProt P32245); assay: Bias calculation MC4R B-arrestin v MC4R cAMP; assay type: cell-based
T1 construct: host or cells: HEK293 (cAMP Hunter and PathHunter MC4R cell lines)
T1 sequence (P32245 whole entry): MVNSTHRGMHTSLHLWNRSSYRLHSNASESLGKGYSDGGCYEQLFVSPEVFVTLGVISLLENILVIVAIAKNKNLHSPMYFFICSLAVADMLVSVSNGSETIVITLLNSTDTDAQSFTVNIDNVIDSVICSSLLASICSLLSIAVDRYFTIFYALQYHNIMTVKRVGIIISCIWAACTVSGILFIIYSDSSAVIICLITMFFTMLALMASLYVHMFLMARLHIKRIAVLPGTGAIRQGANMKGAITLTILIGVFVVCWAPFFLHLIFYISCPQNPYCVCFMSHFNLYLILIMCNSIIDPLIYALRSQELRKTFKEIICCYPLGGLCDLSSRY
Description: When comparing the selectivity of MC4R v MC1R, larger values indicate selectivity towards MC4R. When comparing the bias of MC4R B-arrestin v MC4R cAMP, larger values indicate bias towards B-arrestin.

SMILES | pEC50 (MC1R) | Selectivity: MC4R v MC1R (MC4R vs MC1R; Compounds with Gln at X4, larger values indicate selectivity towards MC4R) | Selectivity: MC4R v MC1R (MC4R vs MC1R; Table 6 (A), larger values indicate selectivity towards MC4R) | Selectivity: MC4R v MC1R (MC4R vs MC1R; Table 6 (B), larger values indicate selectivity towards MC4R) | Selectivity: MC4R v MC1R (MC4R vs MC1R; Table 7, Aib(O-cyclic) at X3, larger values indicate selectivity towards MC4R) | Selectivity: MC4R v MC1R (MC4R vs MC1R; Table 14, Aib(O-cyclic) at X3, larger values indicate selectivity towards MC4R) | Selectivity: MC4R v MC1R (MC4R vs MC1R; Table 20, Gln at X4) | Selectivity: MC4R v MC1R (MC4R vs MC1R; calculated from cAMP functional screening, larger values indicate selectivity towards MC4R) | Bias: MC4R B-arrestin v MC4R cAMP (MC4R; Compounds with Gln at X4, larger values indicate bias towards B-arrestin) | Bias: MC4R B-arrestin v MC4R cAMP (MC4R; Table 6 (B), larger values indicate bias towards B-arrestin) | Bias: MC4R B-arrestin v MC4R cAMP (MC4R; Table 7, Aib(O-cyclic) at X3, larger values indicate bias towards B-arrestin) | Bias: MC4R B-arrestin v MC4R cAMP (MC4R; Table 20, Gln at X4)
CCCC[C@H](NC(C)=O)C(=O)N[C@H]1CC(=O)NCCCC[C@@H](C(=O)O)NC(=O)[C@H](Cc2c[nH]c3ccccc23)NC(=O)[C@H](CCCN=C(N)N)NC(=O)[C@@H](Cc2ccccc2)NC(=O)[C@H](Cc2cnc[nH]2)NC1=O [Bremelanotide] | 9.77 | – | – | – | – | – | – | – | – | – | – | –
CC(=O)N[C@H](CCNC(=N)N)C(=O)N[C@H]1CSSC(C)(C)[C@@H](C(N)=O)NC(=O)[C@H](Cc2c[nH]c3cc(F)ccc23)NC(=O)[C@H](CCCNC(=N)N)NC(=O)[C@@H](Cc2ccc(F)cc2)NC(=O)[C@H](CCC(N)=O)NC(=O)C2(COC2)NC1=O [Molecule 1158, (7R,12R,15S,18S,21R,24S)-7-((R)-2-acetamido-4-guanidinobutanamido)-24-(3-amino-3-oxopropyl)-15-((6-fluoro-1H-indol-3-yl)methyl)-21-(4-fluorobenzyl)-18-(3-guanidinopropyl)-11,11-dimethyl-6,14,17,20,23,26-hexaoxo-2-oxa-9,10-dithia-5,13,16,19,22,25-hexaazaspiro[3.22]hexacosane-12-carboxamide] (Ac-[dAgb]C[Ac4c(3-oxa)]Q[dPhe(4-F)]R[Trp(6-F)][Pen]-NH2; disulfide 2-8) | – | *** (*** denotes MC4R vs MC1R selectivity of about >7.40) | *** (*** denotes MC4R vs MC1R selectivity of about >7.40) | *** (*** denotes MC4R vs MC1R selectivity of about >7.40) | *** (*** denotes MC4R vs MC1R selectivity of about >7.40) | *** (*** denotes MC4R vs MC1R selectivity of about >7.40) | *** (*** denotes MC4R vs MC1R selectivity of about >7.40) | *** (*** denotes MC4R vs MC1R selectivity of about >7.40) | + (+ denotes MC4R B-arrestin v MC4R cAMP bias having a range of >0.00 to ≤2.00) | + (+ denotes MC4R B-arrestin v MC4R cAMP bias having a range of >0.00 to ≤2.00) | + (+ denotes MC4R B-arrestin v MC4R cAMP bias having a range of >0.00 to ≤2.00) | + (+ denotes MC4R B-arrestin v MC4R cAMP bias having a range of >0.00 to ≤2.00)
